Data from US20250302719A1, “COLLAGEN PRODUCTION PROMOTER, COSMETIC COMPOSITION OR EXTERNAL PREPARATION FOR SKIN, AND PREPARATION FOR ORAL ADMINISTRATION” (YAMASA CORPORATION, priority 2022, published 2025).

Experiments:
[1] = tested on: Normal human fibroblasts (NHDF); assay: Type I collagen production by normal human fibroblasts directly treated with sample (Example 3, ELISA); type: cell-based; conditions: direct treatment of normal human fibroblasts with 1.25, 2.5, 5 mM sample, 24 hours
Procedure: (§1) The effects of promoting collagen production for pyrimidine nucleotides were then evaluated with the culture supernatant from normal human epidermal cells and with fibroblasts. In this evaluation, the effects were compared for the case where the fibroblasts were directly treated with pyrimidine nucleotides and the case where the fibroblasts were treated with the normal human epidermal cell culture supernatant treated with the pyrimidine nucleotides.
Normal human fibroblasts (NHDF; Kurabo) were seeded in a 96-well plate at a density of 2.55×10^4 cells/well/100 μL and cultured at 37° C. for 24 hours. The medium was then replaced with 100 μL of media (HuMedia-KG2; Kurabo) containing CMP, 2Na at 0, 1.25, 2.5, 5 (mM) (i.e., 0, 0.0459, 0.0918, 0.184 (w/v %)) and UMP, 2Na at 0, 1.25, 2.5, 5 (MM) (i.e., 0, 0.046, 0.092, 0.184 (w/v %)), and cultured for 24 hours.
(§2) The culture supernatant of normal human fibroblasts was collected and an amount of type I collagen was quantified by ELISA. The protein amount of the culture supernatant was also measured by BCA protein assay.

[2] = tested on: freshly extracted human skin; assay: Ex vivo evaluation test using freshly extracted human skin, elastica-van Gieson staining of collagen fibers (Example 4); conditions: CMP, 2Na 1.0, 2.0 w/v % applied from stratum corneum side, total of 72 hours
Procedure: To evaluate the effect on actual skin with greater precision, an ex vivo evaluation test was conducted using freshly extracted human skin.
Abdominal skin tissue was used, which was taken from a patient during cosmetic surgery, after obtaining informed consent for use in research. The extracted skin was placed in a culture plate supplemented with 1.3 ml of D-MEM/Ham's F-12 medium, and conditioned overnight at 37° C. in 5% CO2. An appropriate amount of PBS (-) containing a given concentration of each sample was applied from the stratum corneum side, and further cultured for 24 hours. The treatment was continued for a total of 72 hours while replacing the sample and medium with fresh ones every 24 hours. The concentrations of CMP, 2Na in the respective samples were 0, 1.0, and 2.0 (w/v %).
After the cultured skin tissue was fixed according to a standard method, skin tissue sections were prepared, collagen fibers were stained with elastica-van Gieson stain, and observed under a microscope.

[3] = tested on: Normal human fibroblasts (NHDF); assay: Type I collagen production by normal human fibroblasts treated with culture supernatant from three-dimensional cultured epidermis (Example 1, ELISA); type: cell-based; conditions: three-dimensional cultured epidermis treated with CMP, 2Na 0.125, 0.25, 1.0, 2.0 w/v % from stratum corneum side, supernatant on fibroblasts 24 hours
Procedure: To reproduce the phenomenon that would occur in actual epidermis, the effect of promoting collagen production for pyrimidine nucleotides was evaluated with a culture supernatant from three-dimensional cultured epidermis, and with fibroblasts.
Three-dimensional cultured epidermis (LabCyte EPI MODEL 24; manufactured by J TEC) was set in a 24-well plate to which 500 μL of the attached assay medium was added, and conditioned overnight at 37° C. 50 μL of sample-containing PBS (-) was applied from the stratum corneum side and cultured for 24 hours. After removing the sample-containing PBS (-), the plate was washed with PBS (-). The samples to be treated with UVB were irradiated with 600 mJ/cm^2 using a UVB lamp (TL20W/12RS; manufactured by PHILIPS). For both samples with and without the UVB treatment, the media were replaced with fresh media, 50 μL of sample-containing PBS (-) was newly applied from the stratum corneum side, and further cultured for 48 hours. After culturing, the culture supernatant was collected. The concentrations of CMP, 2Na in the respective samples were 0, 0.125, 0.25, 1.0 and 2.0 (w/v %), respectively. […]
The culture supernatant from normal human fibroblasts was collected and an amount of type I collagen was quantified by ELISA. The protein amount of the culture supernatant was also measured by BCA protein assay.

Collagen 1A1 (COL1A1) = assay: mRNA expression of COL1A1 in fibroblasts treated with culture supernatant from three-dimensional cultured epidermis (Example 2, real time PCR); type: cell-based, human; conditions: three-dimensional cultured epidermis treated with CMP, 2Na 1.0, 2.0 w/v %; supernatant on fibroblasts; GAPDH endogenous control
Procedure: Similarly, the mRNA expression levels of Collagen 1A1 (COL1A1), a factor related to type I collagen synthesis, were quantified by real-time PCR.
Three-dimensional cultured epidermis (LabCyte EPI MODEL 24; manufactured by J TEC) was set in a 24-well plate to which 500 μL of the attached assay medium was added, and conditioned overnight at 37° C. 50 μL of sample-containing PBS (-) was applied from the stratum corneum side and cultured for 24 hours. After removing the sample-containing PBS (-), the plate was washed with PBS (-). The medium was replaced with a fresh medium, 50 μL of sample-containing PBS (-) was newly applied from the stratum corneum side, and further cultured for 48 hours. After culturing, the culture supernatant was collected. The concentrations of CMP, 2Na in the respective samples were 0, 1.0, and 2.0 (w/v %), respectively.
Normal human fibroblasts were treated with the culture supernatant by the same method as that of Example 1. RNA was extracted from NHDF using RNeasy Mini Kit (QIAGEN), and mRNA expression analysis for collagen 1A1 (COL1A1) was performed by real time PCR ([…]). Glyceraldehyde 3-phosphate dehydrogenase (GAPDH) was used as an endogenous control.

[4] = tested on: Normal human fibroblasts (NHDF); assay: Type I collagen production by normal human fibroblasts treated with normal human epidermal cell culture supernatant (K-CM, Example 3, ELISA); type: cell-based; conditions: for amount of collagen in the culture supernatant of normal human fibroblasts (type I collagen): K-CM: supernatant of normal human epidermal cells treated with 1.25, 2.5, 5 mM sample for 24 hours, fibroblasts 24 hours
Procedure: as §1
Normal human epidermal cells (NHEK; Kurabo) were seeded in a 96-well plate at a density of 2.5×10^4 cells/well and cultured at 37° C. for 24 hours. The medium was replaced with 100 μL of sample-containing medium (HuMedia-KG2; Kurabo) and cultured for 24 hours. After culturing, the culture supernatant was collected. The sample solutions used were 0, 1.25, 2.5, and 5 (mM) (i.e., 0, 0.0459, 0.0918, and 0.184 (w/v %)) of CMP, 2Na, and 0, 1.25, 2.5, and 5 (mM) (i.e., 0, 0.046, 0.092, and 0.184 (w/v %)) of UMP, 2Na.
Normal human fibroblasts (NHDF; Kurabo) were seeded in a 96-well plate at a density of 2.5×10^4 cells/well/100 μL and cultured at 37° C. for 24 hours. The medium was then replaced with 100 μL of the culture supernatant obtained in the culture supernatant acquisition step from the three-dimensional cultured epidermis as described above and cultured for 24 hours.
as §2

[5] = tested on: cultured human skin fibroblasts; conditions: uridylic acid alone, as disclosed in Patent Literature 1; cited from earlier work

Structure (SMILES) | amount of collagen (type I collagen) [1] | collagen fibers in dermis (elastica-van Gieson stain) [2] | amount of collagen in the culture supernatant from normal human fibroblasts (type I collagen) ([3]; UVB 600 mJ/cm^2) | amount of collagen in the culture supernatant from normal human fibroblasts (type I collagen) ([3]; UVB (-)) | expression level of COL1A1 (mRNA, relative to 0 w/v %) (Collagen 1A1 (COL1A1)) | effect of promoting collagen production, cytidylic acid compared with uridylic acid ([4]; Example 3) | amount of collagen in the culture supernatant of normal human fibroblasts (type I collagen) [4] | effect of promoting collagen production [5]
Nc1ccn([C@@H]2O[C@H](COP(=O)(O)O)[C@@H](O)[C@H]2O)c(=O)n1 [CMP, 2Na, disodium cytidylate] | no increase | tended to result in denser collagen fibers | increased | increased | increased | higher effect of promoting collagen production | increased | 
O=c1ccn([C@@H]2O[C@H](COP(=O)(O)O)[C@@H](O)[C@H]2O)c(=O)[nH]1 [UMP, 2Na, disodium uridylate] | no increase |  |  |  |  |  | increased | no effect of promoting collagen production
